# Data as given in article PMC9881157 (2023).
# Experiments:
# Test in all cases: RNA-DRaCALA titration
# [1] = system: To-B (T. oceani ilvE, biotinylated) (RNA, riboswitch) AGGAAGUGUACCUUAGGGUUCCGGCCAUAAGGCGUCAGCGACCGAGCGGUACAAUCCGGGGAAACCCGGAACACCGUGAGCAUAAAAGGCUCCAGCGGCAAGUUCCUAAAAGAC; details: 10 mM MgCl2; 20 mM Tris-HCl pH 7.5, 37 °C; 1 nM 32P-ppGpp
# [2] = system: C16 (RNA, riboswitch) CAGAAGGGUACCUAGGGUUCCGUCCAUUUGAUUCAAGGGAGUCUGGACCAAGCGGUAUCGGCACCGGGAUAUGGUGUACACCGUGGGGAUAAAAGCCUCCAGCGGCAGGUUCUGAUGCAAAAAAAGCCACCGCCACCGCCACCGCCACCGCCACCGCCACCGCC; details: 10 mM MgCl2; 20 mM Tris-HCl pH 7.5, 37 °C; 10 nM 32P-ligand
# [3] = system: C21 (RNA, riboswitch) UAAGAGGCUAACUAGGGUUCCGAUGGUUUCAUGCUGGUCCAAGCGUUAGCAAACAUACUGAGGAAGGUAUGUUACACCGUUAGUACAAAAGGCUCGGCGGGAGGUCUUAUCCUUAAAAAAGCCACCGCCACCGCCACCGCCACCGCCACCGCCACCGCC; details: 10 mM MgCl2; 20 mM Tris-HCl pH 7.5, 37 °C; 10 nM 32P-ligand
SMILES,Kd [1],Kd [2],Kd [3]
Nc1nc2c(ncn2[C@@H]2O[C@H](COP(=O)(O)OP(=O)(O)O)[C@@H](OP(=O)(O)OP(=O)(O)O)[C@H]2O)c(=O)[nH]1,22.1 ± 1.6 nM,33 ± 3.7 nM,654 ± 121 nM
Nc1nc2c(ncn2[C@@H]2O[C@H](COP(=O)(O)OP(=O)(O)OP(=O)(O)O)[C@@H](OP(=O)(O)OP(=O)(O)O)[C@H]2O)c(=O)[nH]1,,137 ± 17 nM,
